Consider 8 compounds from BindingDB's records for PubMed 2885412 (Unwersity of Misscuri, 1987).

For this assay, the target named is T1, Alpha-1A adrenergic receptor (Canis lupus familiaris, UniProt O77621).
T1 sequence (O77621 whole entry): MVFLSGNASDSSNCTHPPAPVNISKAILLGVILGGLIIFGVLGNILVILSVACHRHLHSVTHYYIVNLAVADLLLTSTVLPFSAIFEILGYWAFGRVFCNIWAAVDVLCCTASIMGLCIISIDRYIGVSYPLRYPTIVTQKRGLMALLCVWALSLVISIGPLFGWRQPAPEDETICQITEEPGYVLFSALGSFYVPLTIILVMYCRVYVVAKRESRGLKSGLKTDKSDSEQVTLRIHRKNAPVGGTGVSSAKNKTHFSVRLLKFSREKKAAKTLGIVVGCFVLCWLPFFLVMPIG

Where “and” joins values, the source holds several entries; their conditions need not be identical. Identical values can stand only once.

Usually Ki stands for a dissociation constant, usually derived from enzyme kinetics or from competition with a known ligand. Consider `CNC[C@H](O)c1cccc(O)c1` [PHENYLEPHRINE], for which the Ki was 901 nM and 213 nM.
For `Cc1cc(C(C)(C)C)c(O)c(C)c1CC1=NCCN1` [SMR000059324] the value was 33 nM and 9 nM.
Then `COc1cc2nc(N3CCN(C(=O)c4ccco4)CC3)nc(N)c2cc1OC` [[3H]-Minipress], with 0.02 nM and 0.01 nM; and `Clc1cccc(Cl)c1N=C1NCCN1` [2-(2,6-dichloroanilino)-2-imidazoline], with 37 nM.
`Cc1ccc(N(CC2=NCCN2)c2cccc(O)c2)cc1` [SMR000059054]: the Ki was 2.55 nM and 1.27 nM.
Then `NCC(O)c1ccc(O)c(O)c1` (stereo not drawn) [Noradrenaline,(+)], with 178 nM and 67 nM; and `COC(=O)[C@@H]1[C@H]2C[C@H]3c4[nH]c5ccccc5c4CCN3C[C@@H]2CC[C@@H]1O` [yohimbic acid methyl ester], with 32 nM and 13.4 nM; and `CNCC(O)c1ccc(O)c(O)c1` (stereo not drawn) [EPINEPHRINE], with 110 nM and 30 nM.
